Results from patent US7052909B1, “Method for activating NKT cells using PIMs” (priority 1999, dated 2006).

What was measured:
C57BL/6 mice = assay: Formation of lesions of the granulomatous type after subcutaneous injection in mice; assay type: in vivo, mouse; conditions: s.c., adsorbed onto Alu-Gel-S
NKT cells = assay: NKT-cell recruitment at the site of injection, Vα14-Jα281 mRNA by RT-PCR and Immunoscope; assay type: in vivo, mouse; conditions: C57BL/6 mice, s.c., adsorbed on Alu-Gel-S, day 7, RT-PCR, compared with Alu-Gel-S alone

How did the “cell infiltrate at site of injection” value (C57BL/6 mice) turn out when `CC(=O)N[C@H]1C(O)O[C@H](CO)[C@@H](O)[C@@H]1O[C@H](C)C(=O)N[C@@H](C)C(=O)N[C@H](CCC(=O)O)C(N)=O` (mixture of isomers) [MDP, muramyl-dipeptide] was run?
Its value is “produced a cellular infiltrate”.

What about the “activity of NKT-cell recruitment (Vα14-Jα281 mRNA)” value (NKT cells) of the same molecule?
The value was “without increasing the Vα14-Jα281 mRNA”.
